Results reported in patent US6391566B1, “Ionotropic human glutamate receptor subunit NR3” (NPS Allelix Corporation, priority 1992, dated 2002).

Tests used:
Type in all cases: cell-based
[1] = molecular target: T1, NR3-1/NMDAR1-3C heteromeric complex (Homo sapiens, UniProt Q05586+Q13224); assay: Whole-cell voltage-clamp recording of NMDA-evoked currents in transiently transfected HEK293 cells (heteromeric expression); details: 60 μM NMDA
T1 construct: expressed in transfected cells; host or cells: HEK293 (transient, lipofectamine)
Procedure: (§1) For transient expression, HEK293 cells were transfected with approximately 0.4 μg DNA (as pcDNA1-Amp/hNR3 or pcDNA1-Amp/hNR1-3C) per 10^5 HEK293 cells, by lipofectamine-mediated DNA transfection according to the manufacturer's (Life Technologies Inc., Gaithersburg, Md.) specifications. In coexpression experiments, i.e. for heteromeric expression of NR3-1 and NMDAR1-3C, the HEK293 cells were similarly transfected with 0.8 μg of a DNA mixture containing pcDNA1-Amp/hNR3 and pcDNA1-Amp/hNR1-3C. Briefly, HEK293 cells were plated at a density of 10^5 cells/dish and then grown for 24 hours in 10% FBS-supplemented MEM medium (Life Technologies Inc., Gaithersburg, Md.). The medium was then removed and cells were washed in OPTI-MEM I medium (Life Technologies Inc.) lacking FBS, prior to transfection. A transfection solution (100 μl ) containing 2-4 μl of lipofectamine and DNA was then applied to the cells. After incubation for 4 hours at 37° C., cells were washed as previously described and then allowed to grow for 48 hours in 10% FBS-supplemented MEM medium containing 50 μM DL-AP5 (2-amino-5-phosphonopentanoic acid) and 50 μM 7-chlorokyneurinic acid prior to electrophysiological recording. […]

[2] = molecular target: T2, NMDAR1-3C (Homo sapiens, UniProt Q05586); assay: Whole-cell voltage-clamp recording of NMDA-evoked currents in HEK293 cells transfected with NMDAR1-3C alone; details: 60 μM NMDA; HEK293 cells transiently transfected with NMDAR1-3C alone; FIG. 10
T2 construct: expressed in transfected cells; host or cells: HEK293 (transient, lipofectamine)
Procedure: as §1

[3] = molecular target: T3, NR3 (Homo sapiens, UniProt Q13224); assay: Whole-cell voltage-clamp recording of NMDA-evoked currents in HEK293 cells transfected with NR3 alone; details: 60 μM NMDA; HEK293 cells transiently transfected with NR3 alone; FIG. 10
T3 construct: expressed in transfected cells; host or cells: HEK293 (transient, lipofectamine)
Procedure: as §1

T1 sequence (Q13224 27-1484, other chains not shown): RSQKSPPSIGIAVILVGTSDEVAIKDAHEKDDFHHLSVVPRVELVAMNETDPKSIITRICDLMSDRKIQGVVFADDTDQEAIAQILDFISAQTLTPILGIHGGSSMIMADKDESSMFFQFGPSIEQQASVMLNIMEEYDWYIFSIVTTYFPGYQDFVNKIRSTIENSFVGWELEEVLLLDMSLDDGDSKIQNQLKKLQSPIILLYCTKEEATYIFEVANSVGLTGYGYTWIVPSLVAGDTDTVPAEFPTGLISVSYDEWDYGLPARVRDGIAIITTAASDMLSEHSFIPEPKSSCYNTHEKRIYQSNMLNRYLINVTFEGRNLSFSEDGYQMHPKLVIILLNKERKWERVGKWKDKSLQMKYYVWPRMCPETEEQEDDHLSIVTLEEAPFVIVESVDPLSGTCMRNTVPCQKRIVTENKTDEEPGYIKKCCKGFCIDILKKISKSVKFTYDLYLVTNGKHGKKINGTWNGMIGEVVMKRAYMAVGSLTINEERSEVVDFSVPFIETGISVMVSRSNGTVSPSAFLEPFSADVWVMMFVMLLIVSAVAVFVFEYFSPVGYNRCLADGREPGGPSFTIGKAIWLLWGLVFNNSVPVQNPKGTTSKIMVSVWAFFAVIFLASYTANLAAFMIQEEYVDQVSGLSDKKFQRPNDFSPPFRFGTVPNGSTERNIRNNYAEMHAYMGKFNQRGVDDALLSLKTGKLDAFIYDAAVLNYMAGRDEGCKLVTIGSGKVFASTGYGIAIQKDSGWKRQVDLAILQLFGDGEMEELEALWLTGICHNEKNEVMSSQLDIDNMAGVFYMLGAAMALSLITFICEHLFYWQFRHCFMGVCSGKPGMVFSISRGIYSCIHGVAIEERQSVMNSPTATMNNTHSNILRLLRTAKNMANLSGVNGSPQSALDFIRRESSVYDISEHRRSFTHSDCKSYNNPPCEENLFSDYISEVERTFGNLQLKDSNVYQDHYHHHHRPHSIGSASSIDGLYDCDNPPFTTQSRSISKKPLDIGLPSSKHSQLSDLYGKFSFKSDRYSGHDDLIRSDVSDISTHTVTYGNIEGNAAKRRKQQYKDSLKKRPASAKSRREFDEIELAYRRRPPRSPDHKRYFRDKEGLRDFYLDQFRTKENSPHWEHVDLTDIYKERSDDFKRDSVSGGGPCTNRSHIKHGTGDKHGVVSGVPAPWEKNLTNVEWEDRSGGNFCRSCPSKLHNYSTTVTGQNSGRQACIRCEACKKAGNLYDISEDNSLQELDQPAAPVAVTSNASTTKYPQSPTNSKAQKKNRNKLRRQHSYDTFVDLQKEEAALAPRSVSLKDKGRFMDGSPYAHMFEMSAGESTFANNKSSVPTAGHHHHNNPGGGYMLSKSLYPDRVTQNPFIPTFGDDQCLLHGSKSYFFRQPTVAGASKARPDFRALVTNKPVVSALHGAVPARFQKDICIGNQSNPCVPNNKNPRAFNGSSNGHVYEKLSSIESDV
T3 sequence (Q13224 27-1484): as the sequence (Q13224 27-1484, other chains not shown) above

In the case of [Cl-].[Cl-].[Mg+2] [MgCl2], the “block of NMDA-induced currents” value ([1]; 1 mM MgCl2, HEK293 cells transfected with both NR3-1 and NMDAR1-3C) is reported as “blocked”.
For CN[C@H](CC(=O)O)C(=O)O [NMDA, N-methyl-D-aspartate], the NMDA-induced depolarizations [2] was “No NMDA-induced depolarizations were observed”, the NMDA-induced depolarizations [3] was “No NMDA-induced depolarizations were observed” and the NMDA-induced depolarizations ([1]; HEK293 cells transiently transfected with both NR3-1 and NMDAR1-3C, FIG. 10) was “NMDA-induced depolarizations were, however, observed”.
